The values below come from patent US11547698B2, “Aryl hydrocarbon receptor modulators” (ARIAGEN, INC., priority 2016, dated 2023).

SMILES strings stand for the structures.

This series has as its target T1, AhR receptor (Homo sapiens, UniProt P35869).
T1 construct: cells of reporter gene expressing natural (Human Hepatoma Huh-7) AhR receptor; endogenous in cells; host or cells: Human hepatoma Huh-7 reporter cells (firefly luciferase under a receptor-specific response element)
T1 sequence (P35869 11-848): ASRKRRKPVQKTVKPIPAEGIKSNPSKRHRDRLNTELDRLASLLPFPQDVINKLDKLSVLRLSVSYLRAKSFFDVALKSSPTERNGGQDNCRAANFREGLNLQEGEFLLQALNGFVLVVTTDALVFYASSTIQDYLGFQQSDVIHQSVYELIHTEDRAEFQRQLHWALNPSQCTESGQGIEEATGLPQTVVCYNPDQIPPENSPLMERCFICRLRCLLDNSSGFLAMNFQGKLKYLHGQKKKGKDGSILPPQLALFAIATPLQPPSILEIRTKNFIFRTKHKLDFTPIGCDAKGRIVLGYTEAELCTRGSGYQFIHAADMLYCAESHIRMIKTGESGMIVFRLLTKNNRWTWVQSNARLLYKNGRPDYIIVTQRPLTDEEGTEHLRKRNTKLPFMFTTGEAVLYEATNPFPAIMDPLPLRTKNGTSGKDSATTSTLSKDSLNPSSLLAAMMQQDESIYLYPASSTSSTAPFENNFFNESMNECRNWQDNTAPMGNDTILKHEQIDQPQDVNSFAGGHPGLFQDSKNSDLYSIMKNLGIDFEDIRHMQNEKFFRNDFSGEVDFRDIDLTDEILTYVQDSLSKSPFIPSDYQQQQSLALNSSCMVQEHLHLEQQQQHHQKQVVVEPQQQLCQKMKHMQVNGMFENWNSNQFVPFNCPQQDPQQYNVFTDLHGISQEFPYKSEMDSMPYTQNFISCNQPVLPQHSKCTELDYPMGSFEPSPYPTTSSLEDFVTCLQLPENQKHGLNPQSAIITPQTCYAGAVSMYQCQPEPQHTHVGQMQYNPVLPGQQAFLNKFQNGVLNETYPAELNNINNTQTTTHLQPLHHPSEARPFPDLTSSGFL
The experiment in a line: AhR agonist assay (luciferase reporter gene cells). Type of series: cell-based. The note with it: reporter cells expressing natural (Human Hepatoma Huh-7) AhR receptor, firefly luciferase, 24 hours at 37° C., 0.1% DMSO. As for the experimental part:
Experimental material (plasmids): cells of reporter gene expressing natural (Human Hepatoma Huh-7) AhR receptor, in which reporter vector comprises a functional firefly luciferase gene connecting to an upstream receptor specific genetic response element (GRE).
AhR agonist test includes following three steps:
1, Implanting into cells: a suspension of reporter cell of AhR receptor was prepared in cell recovery medium (CRM; containing 10% charcoal-treated FBS). Then the suspension (100 μL) was assigned to wells in a white culture plate with 96 wells.
2, Before the experiment was about to begin, Master Stocks was diluted to be a processing medium of “concentration of 2 X” by use of appropriate compound screening assay medium (CSM: containing 10% charcoal-treated FBS). Test compounds were diluted with gradient method by use of CSM medium containing 0.2% DMSO to make the final concentration of DMSO in each well of each treatment group being 0.1%. The processing medium was added to culture plate (100 μL/well) on which cells containing reporter gene had been laid in advance in wells by means of double duplicate. The culture plate was placed in an incubator of 37° C. for 24 hours.
3, Fluorescence detection and analysis: after incubation, the processing medium was discarded and luciferase detection reagent was added 100 μL/well. Ave RLU (mean relative fluorescence intensity) of each well and coefficient of variation for each set of experiments were detected. Ratio of Ave RLU^Test Cmpd of treatment groups with test compound of different concentrations to Ave RLU^Vehicle of blank control group can determine activity quantitatively of AhR receptor under influence of test compound of different concentrations and activating multiples as well as EC50.
Processing method of data may refer to J. Biomol.
On the technique in general: A reporter such as luciferase makes a cellular process visible.

In general, EC50 refers to the concentration that produces a half-maximal response. As to `COCCOCCOCCOC(=O)n1cc(C(=O)c2nc(C(=O)OC)cs2)c2ccccc21` [Compound 5], the EC50 lay within 1 to 1000 nM. In the case of `COC(=O)c1csc(C(=O)c2cn(COC(=O)[C@@H](N)C(C)(C)C)c3ccccc23)n1` [Compound 2-2] it was 1 to 1000 nM. In the case of `O=C(c1nc(-c2nnc[nH]2)cs1)c1c[nH]c2ccccc12` [Compound 36] it was 1 to 1000 nM; in that of `COC(=O)C1CSC(c2csc(C(=O)c3c[nH]c4ccccc34)n2)=N1` (stereo not shown) [Compound 32-1], 1 to 1000 nM; in that of `COC(=O)c1csc(/C(=N\O)c2c[nH]c3ccccc23)n1` [Compound 26-2], 1000 to 10000 nM. `COC(=O)c1csc(C(=O)c2cn(C3OC(COC(C)=O)C(OC(C)=O)C(OC(C)=O)C3OC(C)=O)c3ccccc23)n1` (stereo not shown) [Compound 38-2] displayed an EC50 of 1 to 1000 nM.

The molecule `COC(=O)c1csc(-c2csc(C(=O)c3c[nH]c4ccccc34)n2)n1` [Compound 32-2] returned an EC50 of 1 to 1000 nM.

`COC(=O)c1csc(C(=O)c2cn(CO)c3ccccc23)n1` [Compound 37] came in with a concentration giving a half-maximal response (EC50) of 1 to 1000 nM. For the molecule `O=C(c1nc(-c2nnn[nH]2)cs1)c1c[nH]c2ccccc12` [Compound 35], the EC50 fell in the range of 1000 to 10000 nM. In turn, `COC(=O)c1ccc(C(=O)c2c[nH]c3ccccc23)nc1` [Compound 18] displayed an EC50 of 1000 to 10000 nM. The molecule `CC(C)[C@H](N)C(=O)n1cc(C(=O)c2nc(-c3nccs3)cs2)c2ccccc21` [Compound 42-2] gave a concentration giving a half-maximal response (EC50) of 1 to 1000 nM. In the case of `CC(C)c1nc(C(=O)c2c[nH]c3ccccc23)cs1` [Compound 9] it was 1 to 1000 nM. With `CO/N=C(/c1nc(C(=O)OC)cs1)c1c[nH]c2ccccc12` [Compound 25-1], the EC50 lay in the range of 1000 to 10000 nM. In the case of `O=C(c1nc(-c2cnccn2)cs1)c1c[nH]c2ccccc12` [Compound 39] it was 1 to 1000 nM; in that of `CC(C)[C@H](NC(=O)OC(C)(C)C)C(=O)n1cc(C(=O)c2nc(-c3nccs3)cs2)c2ccccc21` [Compound 42-1], 1 to 1000 nM; in that of `COC(=O)c1nsc(C(=O)c2c[nH]c3ccccc23)n1` [Compound 8], 1000 to 10000 nM. In the case of `O=C(c1nc(-c2ccccn2)cs1)c1c[nH]c2ccccc12` [Compound 22] it was 1 to 1000 nM; in that of `O=C(c1nc(C2=NCCO2)cs1)c1c[nH]c2ccccc12` [Compound 33-1], 1 to 1000 nM. For `COC(=O)c1csc(C(=O)c2cn(COC(=O)[C@@H](N)C(C)C)c3ccccc23)n1` [Compound 1-2], the EC50 lay within 1 to 1000 nM.

`COCCOCCOCCOCC(=O)OCC(=O)OCn1cc(C(=O)c2nc(C(=O)OC)cs2)c2ccccc21` [Compound 7] yielded an EC50 of 1 to 1000 nM. `COC(=O)c1csc(C(=O)c2c[nH]c3ccccc23)c1` [Compound 15] displayed an EC50 of 10000 to 100000 nM. In the case of `Nc1nc(-c2csc(C(=O)c3c[nH]c4ccccc34)n2)cs1` [Compound 44] it was 1 to 1000 nM; in that of `O=C(c1nc(C2CC2)cs1)c1c[nH]c2ccccc12` [Compound 41], 1 to 1000 nM; in that of `COC(=O)c1nnc(C(=O)c2c[nH]c3ccccc23)o1` [Compound 34], 1000 to 10000 nM. In turn, `O=C(c1nc(C2=NCCS2)cs1)c1c[nH]c2ccccc12` [Compound 31-1] registered an EC50 of 1 to 1000 nM.

As for `COC(=O)c1csc(C(=O)c2cn(C3OC(COC(C)=O)C(OC(C)=O)C(OC(C)=O)C3OC(C)=O)c3ccccc23)n1` (stereo not shown) [Compound 38-1], the EC50 is 1 to 1000 nM.

The molecule `COC(=O)[C@@H]1COC(c2csc(C(=O)c3c[nH]c4ccccc34)n2)=N1` [Compound 30-1] returned an EC50 of 1 to 1000 nM.

Consider `COCCOCCOCCOCC(=O)OCn1cc(C(=O)c2nc(C(=O)OC)cs2)c2ccccc21` [Compound 6], for which the EC50 was 1 to 1000 nM. Take `COC(=O)c1csc(Cc2c[nH]c3ccccc23)n1` [Compound 28]: the EC50 lay in the range of 10000 to 100000 nM. Molecule `COC(=O)c1coc(-c2csc(C(=O)c3c[nH]c4ccccc34)n2)n1` [Compound 30-2] had an EC50 of 1 to 1000 nM. In the case of `COC(=O)c1csc(C(=O)c2cn(C3OC(COC(C)=O)C(O)C(O)C3O)c3ccccc23)n1` (stereo not shown) [Compound 38-3] it was 1 to 1000 nM; in that of `O=C(c1nc(-c2c[nH]cn2)cs1)c1c[nH]c2ccccc12` [Compound 43-2], 1 to 1000 nM.

For the molecule `O=C(c1nc(-c2nccs2)cs1)c1c[nH]c2ccccc12` [Compound 31-2], the EC50 fell in the range of 1 to 1000 nM. In the case of `O=C(c1nc(-c2ncco2)cs1)c1c[nH]c2ccccc12` [Compound 33-2] it was 1 to 1000 nM; in that of `COC(=O)C1CSC(C(=O)c2c[nH]c3ccc(OC)cc23)=N1` (stereo not shown) [Compound 19-1], 1 to 1000 nM.

In the case of `O=C(c1nc(-c2ccco2)cs1)c1c[nH]c2ccccc12` [Compound 40], the EC50 was in the range of 1 to 1000 nM. In the case of `COC(=O)c1csc(C(=O)c2cn(C3OC(CO)C(O)C(O)C3O)c3ccccc23)n1` (stereo not shown) [Compound 38-4] it was 1 to 1000 nM; in that of `COC(=O)c1csc(/C(=N/O)c2c[nH]c3ccccc23)n1` [Compound 26-1], 1000 to 10000 nM; in that of `COC(=O)c1c[nH]c(C(=O)c2c[nH]c3ccccc23)n1` [Compound 23], 1 to 1000 nM. In the case of `COC(=O)c1ccc(C(=O)c2c[nH]c3ccccc23)n1C` [Compound 12] it was 1 to 1000 nM; in that of `CO/N=C(\c1nc(C(=O)OC)cs1)c1c[nH]c2ccccc12` [Compound 25-2], 1000 to 10000 nM. In the case of `COC(=O)COCn1cc(C(=O)c2nc(C(=O)OC)cs2)c2ccccc21` [Compound 3] it was 1 to 1000 nM; in that of `CC(C)c1csc(C(=O)c2c[nH]c3ccccc23)n1` [Compound 21], 1 to 1000 nM; in that of `COC(=O)c1csc(C(=O)c2cn(C(=O)[C@@H](N)C(C)C)c3ccccc23)n1` [Compound 4-2], 1 to 1000 nM.

`COC(=O)c1csc(C(=O)c2c[nH]c3ccc(OC)cc23)n1` [Compound 19-2] yielded an EC50 of 1 to 1000 nM. On to `COC(=O)CNC(=O)c1csc(C(=O)c2c[nH]c3ccccc23)n1` [Compound 27], for which the EC50 lay within 1 to 1000 nM.
